Laboratory results taken from patent US8852876B2, “Label free biosensors and cells” (Corning Incorporated, priority 2008, dated 2014).

Key:
quiescent A431 cells = assay: mβCD-induced response (cholesterol effluxing) on LID sensor; type: cell-based, human; conditions: 20 nM EGF or 1000 nM H7; pretreated at least 40 minutes
Text: The disclosed methods can be used to assay cholesterol transport and to, for example, screen for molecules that effect cholesterol transport, such as effluxing and uptake. […] This method is based on the measurement in real time of the effect of compounds on cholesterol effluxing. Depletion of cholesterol content on cell surface or intracellular pool results in the disappearance of microvilli located in the cell surface, resulting in the flatness of cells adherent on a surface. The flatness of cells leads to a positive DMR phase with increased signal. Based on this biological effect, we use reagents, as markers, that can either extract cholesterol from the cell surface (e.g., methyl-beta-cyclodextrin (mβCD), or high density lipoproteins (HDLs)), or bind or sequester cholesterol on the cell surface (e.g., saponin at relatively low concentrations). The changes obtained using optical biosensors can be used as an indicator of modulators that interfere with the cholesterol effuxing. FIG. 27 provides a schematic of a cholesterol pathway.

A431 cells = assay: Cell adhesion and spreading on RWG biosensor; type: cell-based, human; conditions: 100 nM; 5% FBS; room temperature
Text: The adhesion and spreading of cells at surfaces were well studied using optical imaging techniques, as well as optical biosensors such as SPR and RWG. […] Subsequently, attached cells undergo morphological changes known as spreading—a process that the cells increase their area in contact with the surface. Both attachment and spreading are dependent on the nature of the surface and of the medium in which the cells are suspended. Since cell adhesion and spreading obviously leads to both vertical and horizontal mass redistribution within the sensing volume, we first characterized the adhesion and spreading of A431 cells in 5% FBS in the absence and presence of vincristine. Vincristine is a plant alkaoid that inhibits microtubule assembly by binding to tubulin.
We studied the adhesion and spreading of A431 cells in 5% FBS in the absence and presence of vincristine at room temperature (25° C.). […] Following the addition of cell solution, there is an immediate and rapid increased signal, which is probably resulted from three events: the increased bulk index from the addition of the cell solution, the immobilization of serum proteins onto the sensor surface, and the sedimentation of cells and subsequent contact of cells with the surface. Afterwards, a prolonged increased signal occurred, indicating the slow process of cell spreading. Ultimately a saturated level was reached. […]

[1] = system: endogenous GPCRs in A431 cells; assay: DMR optical biosensor profiling of GPCR agonists; type: cell-based, human; conditions: quiescent A431; first class = Gq-type, second = Gs-type, third = Gi-type, fourth = no significant DMR
[2] = target: T1, protease activated receptors PAR1 and PAR2 (Homo sapiens, UniProt P55085); type: cell-based
T1 construct: A431 cells which endogenously express PAR1 and PAR2; endogenous in cells; host or cells: A431
T1 sequence (P55085 26-397): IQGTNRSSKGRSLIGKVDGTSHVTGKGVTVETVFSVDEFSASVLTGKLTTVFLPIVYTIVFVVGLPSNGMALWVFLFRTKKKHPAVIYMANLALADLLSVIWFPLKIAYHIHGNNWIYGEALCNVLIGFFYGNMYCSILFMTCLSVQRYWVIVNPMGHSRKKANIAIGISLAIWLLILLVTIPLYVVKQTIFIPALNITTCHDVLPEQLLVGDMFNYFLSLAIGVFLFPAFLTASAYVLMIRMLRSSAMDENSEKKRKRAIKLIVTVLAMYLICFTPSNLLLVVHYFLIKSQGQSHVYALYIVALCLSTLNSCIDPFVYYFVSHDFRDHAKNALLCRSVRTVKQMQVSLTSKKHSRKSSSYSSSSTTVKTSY
Protocol: (§1) Human epidermoid carcinoma A431 cells (American Type Cell Culture) were grown in Dulbecco's modified Eagle's medium (DMEM) supplemented with 10% fetal bovine serum (FBS), 4.5 g/liter glucose, 2 mM glutamine, and antibiotics. ˜3-7.5×10^4 cells at passage 3 to 5 suspended in 200 μl the DMEM medium containing 10% FBS were placed in each well of a 96 well microplate, and were cultured at 37° C. under air/5% CO2 until ˜95% confluency was reached (˜2-4 days).
(§2) The compound or PAR agonist solutions were made in 1×HBSS in order to match the refractive index between the cell medium and compound solution, thus minimizing the unwanted effect of bulk index change due to the introduction of compound solution which can temporarily overwhelms any DMR signal as it occurs.

[3] = system: protease activated receptors PAR1 and PAR2; type: cell-based, human
Protocol: as §1, §2

[4] = system: protease activated receptors PAR1 and PAR2; assay: Fluo-3 Ca2+ mobilization assay with PAR agonists; type: cell-based, human; conditions: for Concentration required to induce a maximal response: [Ca2+]i; for Effect of preceding stimulation on trypsin-induced [Ca2+]i elevation: 200 nM trypsin; for Maximal [Ca2+]i elevation / EC50: quiescent A431, Fluo-3; for EC50: read-out: EC50 of [Ca2+]i increase
Protocol: A431 at passage 3 to 5 were grown in Costar™ 96 well clear cell culture microplates until ˜95% confluency, washed twice and starved overnight with the DMEM only, washed with 1×HBSS (1× regular Hank's balanced salt solution, 20 mM HEPES buffer, pH 7.0) in the presence of 2.5 mM probenicid, and labeled in the same buffer containing 4 μM Fluo-3 for 1 hour at room temperature. The cells were then washed twice with buffer, maintained with 100 μl 1×HBSS containing 2.5 mM probenicid. The assay was initiated by transferring 50 μl PAR agonist solution to the cell plate, and calcium signal was recorded over 6 minutes with a 6 sec interval using HTS7000 BioAssay Reader (PerkinElmer Life Science, Boston, Mass.). The assays were carried out at room temperature in order to allow direct comparison with optical sensing data.

[5] = target: T2, protease activated receptors PAR1 and PAR2 (Homo sapiens, UniProt P25116); type: cell-based
T2 construct: A431 cells which endogenously express PAR1 and PAR2; endogenous in cells; host or cells: A431
T2 sequence (P25116 22-425): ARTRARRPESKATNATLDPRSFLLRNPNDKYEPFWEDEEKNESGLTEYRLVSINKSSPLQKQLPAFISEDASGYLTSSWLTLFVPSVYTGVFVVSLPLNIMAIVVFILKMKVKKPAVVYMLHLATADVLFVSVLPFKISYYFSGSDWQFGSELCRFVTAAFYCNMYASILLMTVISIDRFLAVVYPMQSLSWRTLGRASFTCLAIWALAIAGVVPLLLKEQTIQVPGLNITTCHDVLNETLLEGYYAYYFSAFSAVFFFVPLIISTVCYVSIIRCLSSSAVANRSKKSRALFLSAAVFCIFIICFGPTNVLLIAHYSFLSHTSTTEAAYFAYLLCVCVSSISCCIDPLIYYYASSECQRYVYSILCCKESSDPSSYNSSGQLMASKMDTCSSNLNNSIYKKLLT
Protocol: as §1, §2

[6] = system: actin filaments in A431 cells; assay: Texas Red-phalloidin fluorescence imaging; type: cell-based, human; conditions: 100 nM trypsin or 40 unit/ml thrombin; ~95% confluency
Protocol: Cells were grown on Corning® Epic™ 96 well biosensor microplates, starved for overnight with serum-free DMEM medium, chased with either trypsin or thrombin for certain time, fixed with 4% paraformaldehyde, permeabilized in phosphate-buffered saline (PBS) containing 0.2% Triton, and blocked with 1% bovine serum albumin (BSA). Afterwards, cells were incubated with 0.5 μM Texas Red-labeled phalloidin for 1 h at room temperature, and washed. After final washes and mounting, cells were examined with a 40× objective, equipped in a Zeiss Axioplan fluorescence microscope.

Row | Compound | Class of optical signature (DMR) induced by agonist [1] | DMR signal after preceding stimulation with thrombin [2] | Effect of preceding stimulation on trypsin-induced DMR signal ([3]; interval about 1 hour) | Concentration required to induce a maximal response [4] [µM] | Effect of preceding stimulation on trypsin-induced [Ca2+]i elevation ([4]; interval 6 min) | Maximal [Ca2+]i elevation [4] [%] | EC50 [4] [nM] | other results
1 | CC1CNCCN1S(=O)(=O)c1cccc2cnccc12 (stereo not shown) [H7] |  |  |  |  |  |  |  | Effect of pretreatment on mβCD-induced response (quiescent A431 cells): led to the suppression of the mβCD-induced response
2 | CC[C@]1(O)C[C@H]2CN(CCc3c([nH]c4ccccc34)[C@@](C(=O)OC)(c3cc4c(cc3OC)N(C=O)[C@H]3[C@@](O)(C(=O)OC)[C@H](OC(C)=O)[C@]5(CC)C=CCN6CC[C@]43[C@@H]65)C2)C1 [vincristine] |  |  |  |  |  |  |  | Effect on cell adhesion and spreading signatures (A431 cells): suppressed not only both the initial and total responses, but also reduced the kinetics of cell spreading; Reduction of total change in incident angle vs absence of compound (A431 cells): about 20%
3 | SLIGKV [SLIGKV-amide, PAR2-AP] | first class of optical signatures | induced the DMR signal similar to that obtained without the preceding stimulation | significantly suppresses but not completely eliminates the trypsin-induced DMR signal | 20 | significantly attenuated but not completely eliminates the trypsin-induced [Ca^2+]i elevation | 52±6.3 | 3800 ± 400 | [Ca2+]i elevation after preceding stimulation with thrombin ([4]; thrombin 40 unit/ml first, interval 6 min): 48.5±3.8%
4 | SLIGLR [SLIGLR-amide, PAR2-AP] | first class of optical signatures | induced the DMR signal similar to that obtained without the preceding stimulation | significantly suppresses but not completely eliminates the trypsin-induced DMR signal | 20 | significantly attenuated but not completely eliminates the trypsin-induced [Ca^2+]i elevation | 64±3.7 | 2500 ± 300 | 
5 | YFLLRNP [PAR1 specific partial agonist] |  |  |  |  |  |  |  | DMR signal stimulated by compound alone [5]: only at high doses stimulated significant DMR signals; Effect of pretreatment on PAR2-AP GLIGKV-mediated DMR signal ([2]; SLIGKV-amide 20 μM): no obvious effect on the PAR2-AP GLIGKV-mediated DMR signal; Effect of pretreatment on trypsin-mediated DMR signal ([3]; 100 or 200 nM trypsin, modulators 10 μM): only partially attenuated both SFFLR-amide and trypsin-mediated DMR; Effect of pretreatment on SFFLR-amide-mediated DMR ([3]; SFFLR-amide 20 μM, highest dose examined): only partially attenuated both SFFLR-amide and trypsin-mediated DMR; [Ca2+]i elevation by compound alone ([4]; concentrations up to 160 μM): did not induce any significantly elevation of [Ca^2+]i; [Ca2+]i elevation mediated by 200 nM trypsin after pretreatment ([4]; pretreatment with 80 μM, n=5): 48.3±4.5%
6 | trypsin | first class of optical signatures |  |  | 0.4 |  | 100±6.3 | 45.7 ± 5.8 | Effect of preceding stimulation on DMR signal induced by PAR-APs ([3]; SFFLR-amide, GLIGKV-amide, GLIGLR-amide, interval about 1 hour): significantly suppressed the DMR signal induced by either of three PAR-APs; Effect of preceding stimulation on DMR signal induced by trypsin or thrombin ([3]; interval about 1 hour): completely eliminated the DMR signal induced by either trypsin (data not shown) or thrombin; Effect of pretreatment on DMR mediated by bradykinin ([3]; interval about 1 hour): little effect on the DMR mediated by bradykinin; Effect of preceding stimulation on [Ca2+]i elevation by subsequent PAR agonists ([4]; then 40 unit/ml thrombin, 20 μM SFFLR-amide, GLIGKV-amide, GLIGLR-amide or 200 nM trypsin, interval 6 min): induced almost no [Ca^2+]i elevation; Maximal [Ca2+]i elevation relative to thrombin ([4]; trypsin vs thrombin): approximately 2 fold; Reorganization of actin filaments [6]: triggered significant cytoskeletal reorganization after about 10 min
